Experimental data published in patent US10160867B2, “Benzoxaborole-containing coating resistant to cellulose-supportable fungus” (THE PENN STATE RESEARCH FOUNDATION, priority 2015, dated 2018).
Converted amounts (≈) assume the structure as drawn.

Key:
Penicillium chrysogenum [1] = test: Fungus resistance test after painting over fungal growth (defacement rating); type: cell-based; conditions: painted over fungal growth, +200 μg/mL in Valspar QuikHide paint
Excerpt: (§1) In this series of experiments, fungal growth was allowed to cover a painted surface (surface containing 2 coats of the unaltered paint) to a defacement rating of 3-5, forming a ‘contaminated surface’. […] The paint application was extended approximately 1-2 cm beyond the edge of the disc onto the NSA medium. Each formulation used a separate brush to avoid cross contamination. The re-painted discs were placed back into the humid environment with elevated temperature to encourage fungal growth.
(§2) This test was used to evaluate the ability of paint films containing antifungal additives to prevent the re-emergence of fungal growth after painting over existing growth.
(§3) Olympic® Home interior flat latex paint (PPG Industries, Pittsburgh, Pa.) and Valspar® QuikHide White flat interior paint (Valspar Corporation, Minneapolis, Minn.) were used for the experiments in this study unless specified. Stock solutions of the antifungal additives of interest were prepared in reagent grade dimethyl sulfoxide (DMSO; Alfa Aesar, Ward Hill, Mass.). Additives were spiked (by adding appropriate amounts of the antifungal stock solutions) into the liquid paint at specified concentrations. Samples of additive-spiked paint were vigorously mixed with a vortex mixer for at least one minute to insure uniform dispersion of the additive in the paint. […] Studies that used other brands of paint followed the same protocol as described for those using the Olympic® Home interior flat latex paint.
(§4) Test surfaces were prepared in triplicate. In most cases, the tested conditions were repeated on a different date, again in triplicate. […] Two coats of paint were applied with a polyester brush to completely cover both faces of the filter paper disc, allowing at least four hours drying time between coats.
(§5) Nutrient-Salts Agar (NSA) media was prepared according to ASTM method G21-13 in 100×15 mm sterile polystyrene petri dishes (VWR® Radnor, Pa.) with a solidified agar layer from 3 to 6 mm (⅛ to ¼ in.) in depth. The agar was allowed to solidify for at least 24 hours before being used. The painted test filter paper discs were placed in the center of the agar plates in a biosafety hood while wearing clean nitrile gloves.
(§6) The paint coatings were evaluated against three representative fungi: Stachybotrys chartarum, Penicillium chrysogenum, and Alternaria alternata. […] Fungal isolates of Alternaria alternata and Penicillium chrysogenum were obtained from the Plant Pathology and Environmental Microbiology Department at Penn State University.
(§7) A spore suspension of each of these fungi was prepared by pouring a 20-mL portion of autoclaved deionized water containing 0.01% Tween® 20 onto a subculture of each fungal species. Spores were counted with the use of a hemocytometer (Hausser Scientific, Horsham, Pa.) under a microscope. Spore suspensions of Stachybotrys chartarum and Penicillium chrysogenum were diluted to 1×10^6 spores/mL with autoclaved deionized water. Spore suspensions of Alternaria alternata were used “as is” in the range of 200,000 to 400,000 spores/mL.
(§8) Painted test surfaces were inoculated with a spray bottle or with a cotton-tipped applicator. To inoculate the sample with a spray bottle, the spore suspension was sprayed twice on the painted test discs with a spray bottle that delivered approximately 0.14 g of fluid per spray. To inoculate the sample with a cotton-tipped applicator, an autoclaved cotton-tipped applicator was submerged in approximately 400 μL of the inoculum solution and applied evenly over the surface of the painted test surface twice.

Alternaria alternata [2] = test: as above; type: cell-based; conditions: painted over fungal growth
Excerpt: as §1, §2, §3, §4, §5, §6, §7, §8

Stachybotrys chartarum [3] = test: as above; type: cell-based; conditions: painted over fungal growth
Excerpt: as §1, §2, §3, §4, §5, §6, §7, §8

Mucor spp. = test: 3 day MIC, broth microdilution in 25% PDB; type: cell-based; conditions: 72 h
Summary of the method: (§9)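 Following a modified CLSI M38-A2 method, the work used spore inocula at 0.4-1×10^5 CFU/mL final in sealed plates kept at about 25° C, with readings at 48 and 72 hours.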

[4] = system: Cladosporium cladosporioides; test: 3 day MIC, broth microdilution in 25% PDB; type: cell-based; conditions: 72 h
Summary of the method: as §9

Aspergillus niger = test: 3 day MIC, broth microdilution in 25% PDB; type: cell-based; conditions: 72 h
Summary of the method: as §9

Aureobasidium pullulans = test: 3 day MIC, broth microdilution in 25% PDB; type: cell-based; conditions: 72 h
Summary of the method: as §9

Rhizopus spp. = test: 3 day MIC, broth microdilution in 25% PDB; type: cell-based; conditions: 72 h
Summary of the method: as §9

Aspergillus flavus = test: 3 day MIC, broth microdilution in 25% PDB; type: cell-based; conditions: 72 h
Summary of the method: as §9

Fusarium oxysparum ST-33 = test: 3 day MIC, broth microdilution in 25% PDB; type: cell-based; conditions: ST33, 72 h
Summary of the method: as §9

Alternaria alternata [5] = test: 3 day MIC, broth microdilution in 25% PDB; type: cell-based; conditions: 72 h, 25% PDB, read-out: 3 day MIC
Description: (§10) Stock solutions (concentrations of between 4,000 μg/mL to 10,000 μg/mL; stored at −18° C.) of the above antifungals were prepared in dimethyl sulfoxide (DMSO). The stock solutions were further diluted into sterile 25% potato dextrose broth (PDB) so that the diluted solutions could be used for the antifungal susceptibility studies. This way, a typical microdilution study would reach a final ratio of about 0.5-2% v/v of DMSO in 25% PDB.
(§11) Spore inocula were prepared in sterile distilled water with 0.1% Tween® 20 (a polysorbate surfactant), and a hemocytometer was used to determine the spore density. Typically, the spore inoculum was prepared fresh prior to each study, and the inoculum was appropriately diluted to a final concentration of 0.4-1×10^5 spores/mL or colony-forming unit (CFU)/mL in each study. The spore suspension can be stored in a refrigerator at 4° C. for up to one week.
(§12) The studies were performed in flat bottom, 96-well microtiter plates (Greiner Bio-One, Frickenhausen, Germany).
(§13) Plates sealed with clear polyester film (VWR, Radnor, Pa.) were incubated at a temperature of about 25° C. The progress of fungal growth was monitored at 48 hours and 72 hours.

Stachybotrys chartarum [6] = test: 3 day MIC, broth microdilution in 25% PDB; type: cell-based; conditions: 72 h, 25% PDB, read-out: 3 day MIC
Description: as §10, §11, §12, §13

[7] = system: Penicillium brevicompactum; test: 3 day MIC, broth microdilution in 25% PDB; type: cell-based; conditions: 72 h, 25% PDB, read-out: 3 day MIC
Description: as §10, §11, §12, §13

Penicillium corylophilum = test: 3 day MIC, broth microdilution in 25% PDB; type: cell-based; conditions: 72 h, 25% PDB, read-out: 3 day MIC
Description: as §10, §11, §12, §13

Penicillium purpurogenum = test: 3 day MIC, broth microdilution in 25% PDB; type: cell-based; conditions: 72 h; Penicillium purpurogenum; 25% PDB; read-out: 3 day MIC
Description: as §10, §11, §12, §13

[8] = commercially available fungicidal agents; cited from earlier work
Penicillium chrysogenum [9] = test: 3 day MIC, broth microdilution in 25% PDB; type: cell-based; conditions: 72 h, 25% PDB, read-out: 3 day MIC
Description: as §10, §11, §12, §13

[10] = +100 μg/mL in Olympic Home paint, 14 days
[11] = +100 μg/mL in Olympic Home paint, 21 days
[12] = +100 μg/mL in Olympic Home paint, 7 days

OB1OCc2cc(F)ccc21 [Compound B9, 5-Fluoro-1,3-dihydro-2,1-benzoxaborol-1-ol]
Average defacement rating ± standard deviation (Penicillium chrysogenum [1]; 7 days): 8.7 ± 1.0 (9) | Average defacement rating ± standard deviation (Penicillium chrysogenum [1]; 14 days): 2.6 ± 3.1 (9) | Average defacement rating ± standard deviation (Penicillium chrysogenum [1]; 21 days): 0.0 ± 0.0 (9) | Average defacement rating ± standard deviation (Alternaria alternata [2]; [10]): 5.1 ± 2.1 (12) | Average defacement rating ± standard deviation (Alternaria alternata [2]; [11]): 4.6 ± 2.2 (12) | Average defacement rating ± standard deviation (Alternaria alternata [2]; +200 μg/mL in Olympic Home paint, 7 days): 9.7 ± 0.6 (3) | Average defacement rating ± standard deviation (Alternaria alternata [2]; +200 μg/mL in Olympic Home paint, 14 days): 7.0 ± 4.4 (3) | Average defacement rating ± standard deviation (Alternaria alternata [2]; +200 μg/mL in Olympic Home paint, 21 days): 6.3 ± 5.5 (3) | Average defacement rating ± standard deviation (Stachybotrys chartarum [3]; +10 μg/mL in Olympic Home paint, 7 days): 0.3 ± 0.6 (3) | Average defacement rating ± standard deviation (Stachybotrys chartarum [3]; +10 μg/mL in Olympic Home paint, 14 days): 0.0 ± 0.0 (3) | Average defacement rating ± standard deviation (Stachybotrys chartarum [3]; +10 μg/mL in Olympic Home paint, 21 days): 0.0 ± 0.0 (3) | Average defacement rating ± standard deviation (Stachybotrys chartarum [3]; [12]): 7.2 ± 2.6 (9) | Average defacement rating ± standard deviation (Stachybotrys chartarum [3]; [10]): 1.3 ± 3.0 (9) | Average defacement rating ± standard deviation (Stachybotrys chartarum [3]; [11]): 1.0 ± 2.8 (9) | MIC (Mucor spp.): 0.25 µg/mL (≈ 1.65 µM) | MIC [4]: 0.1 µg/mL (≈ 0.658 µM) | MIC (Aspergillus niger): 0.25 µg/mL (≈ 1.65 µM) | MIC (Aureobasidium pullulans): 0.125 µg/mL (≈ 0.823 µM) | MIC (Rhizopus spp.): 0.5 µg/mL (≈ 3.29 µM) | MIC (Aspergillus flavus): 1 µg/mL (≈ 6.58 µM) | MIC (Fusarium oxysparum ST-33): 0.25 µg/mL (≈ 1.65 µM) | MIC (Alternaria alternata [5]): 1.6 µg/mL (≈ 10.5 µM) | MIC (Stachybotrys chartarum [6]): 0.13 µg/mL (≈ 0.856 µM) | MIC [7]: 0.2 µg/mL (≈ 1.32 µM) | MIC (Penicillium corylophilum): 0.39 µg/mL (≈ 2.57 µM) | MIC (Penicillium purpurogenum): 0.78 µg/mL (≈ 5.13 µM)

c1ccc2[nH]c(-c3cscn3)nc2c1 [Thiabendazole]
Average defacement rating ± standard deviation (Penicillium chrysogenum [1]; 7 days): 6.7 ± 4.6 (9) | Average defacement rating ± standard deviation (Penicillium chrysogenum [1]; 14 days): 2.2 ± 4.4 (9) | Average defacement rating ± standard deviation (Penicillium chrysogenum [1]; 21 days): 2.2 ± 4.4 (9) | Average defacement rating ± standard deviation (Alternaria alternata [2]; [12]): 0.0 ± 0.0 (6) | Average defacement rating ± standard deviation (Alternaria alternata [2]; [10]): 0.0 ± 0.0 (6) | Average defacement rating ± standard deviation (Alternaria alternata [2]; [11]): 0.0 ± 0.0 (6) | Average defacement rating ± standard deviation (Alternaria alternata [2]; +1000 μg/mL in Olympic Home paint, 7 days): 7.3 ± 1.3 (10) | Average defacement rating ± standard deviation (Alternaria alternata [2]; +1000 μg/mL in Olympic Home paint, 14 days): 3.6 ± 1.7 (10) | Average defacement rating ± standard deviation (Alternaria alternata [2]; +1000 μg/mL in Olympic Home paint, 21 days): 2.8 ± 1.1 (10) | Average defacement rating ± standard deviation (Stachybotrys chartarum [3]; [12]): 0.7 ± 1.6 (6) | Average defacement rating ± standard deviation (Stachybotrys chartarum [3]; [10]): 0.2 ± 0.8 (6) | Average defacement rating ± standard deviation (Stachybotrys chartarum [3]; [11]): 0.2 ± 0.8 (6) | MIC (Mucor spp.): > 200 µg/mL | MIC [4]: 0.8 µg/mL (≈ 3.98 µM) | MIC (Aspergillus niger): 12.5 µg/mL (≈ 62.1 µM) | MIC (Aureobasidium pullulans): 0.4 µg/mL (≈ 1.99 µM) | MIC (Rhizopus spp.): 400 µg/mL (≈ 1990 µM) | MIC (Aspergillus flavus): 12.5 µg/mL (≈ 62.1 µM) | MIC (Fusarium oxysparum ST-33): 25 µg/mL (≈ 124 µM) | Solubility in water [8]: 8 µg/mL (≈ 39.8 µM) | MIC (Penicillium chrysogenum [9]): 0.4 µg/mL (≈ 1.99 µM) | MIC (Alternaria alternata [5]): 100 µg/mL (≈ 497 µM) | MIC (Stachybotrys chartarum [6]): 25 µg/mL (≈ 124 µM) | MIC [7]: 0.4 µg/mL (≈ 1.99 µM) | MIC (Penicillium corylophilum): 0.39 µg/mL (≈ 1.94 µM) | MIC (Penicillium purpurogenum): 0.2 µg/mL (≈ 0.994 µM)
